We go through 15 compounds from patent US12590106B2, “Spiromacrocyclic orexin 2 receptor agonists” (H. Lundbeck A/S, priority 2023, dated 2026).

The assay addresses T1, human Ox2R (Homo sapiens, UniProt O43614).
T1 construct: The gene encoding hOx2R was subcloned into the expression plasmid pcDNA5/FRT/TO; expressed in transfected cells; host or cells: CHO Flp-In cells (pcDNA5/FRT/TO with pOG44 Flp recombinase vector, hygromycin B selection)
T1 sequence (O43614 1-444): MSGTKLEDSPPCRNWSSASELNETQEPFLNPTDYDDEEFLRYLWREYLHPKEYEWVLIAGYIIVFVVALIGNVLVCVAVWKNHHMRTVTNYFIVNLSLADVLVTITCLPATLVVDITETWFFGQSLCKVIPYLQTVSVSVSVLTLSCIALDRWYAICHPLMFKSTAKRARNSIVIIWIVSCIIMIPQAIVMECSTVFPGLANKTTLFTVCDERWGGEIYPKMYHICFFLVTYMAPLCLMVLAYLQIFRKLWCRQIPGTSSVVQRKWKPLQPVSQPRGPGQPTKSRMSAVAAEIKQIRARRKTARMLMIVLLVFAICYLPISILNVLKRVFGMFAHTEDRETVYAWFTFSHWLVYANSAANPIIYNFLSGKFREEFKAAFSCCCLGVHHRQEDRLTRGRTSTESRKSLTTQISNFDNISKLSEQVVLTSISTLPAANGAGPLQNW
Nature of the assay: Measurement of OX2R agonist activity (cell-based calcium release assay). The settings on record: hOx2R-CHO Flp-In cells, n≥2 tests; for EC50: intracellular calcium, read-out: EC50; for Emax: read-out: Emax (%). The text has this:
Measurement of OX2R Agonist Activity
The Ox2R has a broad signaling profile and couple to a range of different Gα-proteins. The cell-based calcium release assay is primarily assessing signaling through the Gαq signaling pathway, which promotes calcium mobilization via inositol triphosphate production upon activation of Ox2R.
A CHO Flp-In cell-line stably expressing the human Ox2R (hOx2R-CHO Flp-In) was established as follows: The gene encoding hOx2R was subcloned into the expression plasmid pcDNA5/FRT/TO and then transfected into CHO Flp-In cells together with the Flp recombinase vector, pOG44. Cells were cultured in growth medium: Ham's F12 (Gibco), 10% fetal bovine serum (Gibco) and 100 U/mL penicillin-streptomycin (Gibco) supplemented with hygromycin B (Thermo Fisher Scientific) as selection marker at 37° C. in the presence of 5% CO2.
To prepare the hOx2R-CHO FlpIn cells for calcium release assay, the cells were suspended in growth medium and seeded in black, clear-bottomed 384-well plates (Corning) at 10,000 cells/well. The plated cells were grown overnight at 37° C. and 5% CO2. The following day, the media was removed, and the cells were incubated with assay buffer (HBSS with 20 mM HEPES, pH 7.4) containing 2.5 mM probenecid (Thermo Fisher Scientific), 10 mM CaCl2, 0.1% pluronic F68 (Gibco) and 1× calcium-4 dye (Molecular Devices) for 1 h at 37° C. and 5% CO2. After incubation, cells were allowed to equilibrate at room temperature for 15 minutes and then loaded into FDSS7000Ex system (Hamamatsu Photonics) together with a plate containing test compounds serially diluted in assay buffer. Cells were stimulated with test compounds (online injection) and the agonist activity was determined as an increase in intracellular calcium concentration measured from the ratio of fluorescence emission at 542 nm by excitation at 480 nm. The agonist response for each applied concentration was assessed as the ratio: maximum fluorescence/average pre-stimulated fluorescence and was normalized to responses from assay buffer alone (0% response) and 10 μM Danavorexton (100% response). EC50 and Emax values were calculated from concentration-response curves by using Genedata Screener software.
Background: Calcium assays in cells follow changes in intracellular calcium, usually with a dye or a luminescent sensor.

The mark [1] stands for this setting: normalized to assay buffer (0%) and 10 μM Danavorexton (100%).

Regarding `CS(=O)(=O)N[C@H]1CC[C@]2(CC1)Cc1cc(c(F)cc1F)-c1cccc(F)c1OCc1coc2n1` [Example 96, trans-N-(6,17,19-trifluorospiro[8,12-dioxa-21-azatetracyclo[14.3.1.110,13.02,7]henicosa-1(19),2,4,6,10,13(21),16(20),17-octaene-14,4′-cyclohexane]-1′-yl)methanesulfonamide], the EC50 (usually the midpoint of the concentration-response curve) turned out to be 230 pM. Further, the maximal response (Emax) (commonly the maximal effect, on the per cent scale that the assay sets) under setting [1] is 98%.

Regarding `CS(=O)(=O)N[C@H]1CC[C@@]2(Cc3ccc(C(F)F)c(c3)-c3cccc(F)c3OCc3coc2n3)C1` [Example 103, N-[(1′S,14R)-19-(difluoromethyl)-6-fluoro-spiro[8,12-dioxa-21-azatetracyclo[14.3.1.110,13.02,7]henicosa-1(19),2,4,6,10,13(21),16(20),17-octaene-14,3′-cyclopentane]-1′-yl]methanesulfonamide], the EC50 stood at 3300 pM. In addition, the maximal response (Emax) under setting [1] is 99%.

Take `Cc1oc2nc1COc1ccccc1-c1cc(ccc1F)C[C@@]21CC[C@H](NS(C)(=O)=O)C1` [Example 26, N-[(1′S,14R)-19-fluoro-11-methyl-spiro[8,12-dioxa-21-azatetracyclo[14.3.1.110,13.02,7]henicosa-1(19),2,4,6,10,13(21),16(20),17-octaene-14,3′-cyclopentane]-1′-yl]methanesulfonamide]: the half-maximal effective concentration (EC50) amounted to 190 pM. For the same compound, the Emax under setting [1] stood at 95%.

For `CS(=O)(=O)N[C@H]1CC[C@@]2(Cc3cc(ccc3F)-c3cccc(F)c3OCc3coc2n3)C1` [Example 17, N-[(1′S,14R)-6,17-difluorospiro[8,12-dioxa-21-azatetracyclo[14.3.1.110,13.02,7]henicosa-1(19),2,4,6,10,13(21),16(20),17-octaene-14,3′-cyclopentane]-1′-yl]methanesulfonamide], the half-maximal effective concentration (EC50) turned out to be 220 pM. For the same compound, the Emax under setting [1] is 96%.

`CS(=O)(=O)N[C@H]1CC[C@@]2(CO[C@H]3C[C@H](C3)c3ccccc3OCc3coc2n3)C1` [Example 72, N-[(1′S,10r,12s,15S)-spiro[3,13,17-trioxa-19-azatetracyclo[14.2.1.110,12.04,9]icosa-1(18),4,6,8,16(19)-pentaene-15,3′-cyclopentane]-1′-yl]methanesulfonamide]: the EC50 worked out at 190000 pM. Besides, the maximal response (Emax) under setting [1] came to 97%.

`CS(=O)(=O)N[C@H]1CC[C@@]2(Cc3cc(c(F)cc3F)-c3cccc(F)c3OCc3cc(=O)[nH]c2n3)C1` [Example 101, N-[(1′S,15R)-6,18,20-trifluoro-12-oxo-spiro[8-oxa-13,22-diazatetracyclo[15.3.1.110,14.02,7]docosa-1(20),2(7),3,5,10,14(22),17(21),18-octaene-15,3′-cyclopentane]-1′-yl]methanesulfonamide]: the EC50 stood at 670 pM. Under setting [1], the maximal effect (Emax) amounted to 96%.

Take `CS(=O)(=O)N[C@H]1CC[C@@]2(Cc3ccc(Cl)c(c3)-c3ccc(F)c(F)c3OCc3coc2n3)C1` [Example 31, N-[(1′S,14R)-19-chloro-5,6-difluoro-spiro[8,12-dioxa-21-azatetracyclo[14.3.1.110,13.02,7]henicosa-1(19),2,4,6,10,13(21),16(20),17-octaene-14,3′-cyclopentane]-1′-yl]methanesulfonamide]: the EC50 was 480 pM. In addition, the Emax under setting [1] worked out at 96%.

In the case of `CS(=O)(=O)N[C@H]1CC[C@@]2(Cc3ccc(F)c(c3)-c3ccccc3OCc3coc2n3)C1` [Example 45, N-[(1′S,14R)-19-fluorospiro[8,12-dioxa-21-azatetracyclo[14.3.1.110,13.02,7]henicosa-1(19),2,4,6,10,13(21),16(20),17-octaene-14,3′-cyclopentane]-1′-yl]methanesulfonamide], the concentration giving a half-maximal response (EC50) worked out at 340 pM. For the same compound, under setting [1], the Emax is 97%.

Turning to `CS(=O)(=O)N[C@H]1CC[C@@]2(Cc3ccc(F)c(c3)-c3cccc(F)c3OCc3ccnc2n3)C1` [Example 82, N-[(1′S,15R)-6,20-difluorospiro[8-oxa-13,22-diazatetracyclo[15.3.1.110,14.02,7]docosa-1(20),2(7),3,5,10,12,14(22),17(21),18-nonaene-15,3′-cyclopentane]-1′-yl]methanesulfonamide], the EC50 was 3700 pM. The Emax under setting [1] amounted to 100%.

In the case of `CS(=O)(=O)N[C@H]1CC[C@@]2(Cc3ccnc(c3)-c3cccc(F)c3OCc3coc2n3)C1` [Example 19, N-[(1′S,14R)-6-fluorospiro[8,12-dioxa-19,21-diazatetracyclo[14.3.1.110,13.02,7]henicosa-1(19),2,4,6,10,13(21),16(20),17-octaene-14,3′-cyclopentane]-1′-yl]methanesulfonamide], the EC50 worked out at 35000 pM. Further, under setting [1], the maximum response (Emax) is 100%.

For the compound `CS(=O)(=O)N[C@H]1CC[C@@]2(CO[C@H]3CC[C@H](CC3)c3ncccc3OCc3coc2n3)C1` [Example 66, N-[(1s,1′S,14R,17s)-spiro[8,12,16-trioxa-3,22-diazatetracyclo[15.2.2.110,13.02,7]docosa-2,4,6,10,13(22)-pentaene-14,3′-cyclopentane]-1′-yl]methanesulfonamide], the 50% effective concentration (EC50) was 81000 pM. Besides, under setting [1], the maximal effect (Emax) turned out to be 94%.

For the compound `CS(=O)(=O)N[C@H]1CC[C@@]2(Cc3cc(ccc3F)-c3c(F)ccc(F)c3OCc3coc2n3)C1` [Example 27, N-[(1′S,14R)-3,6,17-trifluorospiro[8,12-dioxa-21-azatetracyclo[14.3.1.110,13.02,7]henicosa-1(20),2,4,6,10,13(21),16,18-octaene-14,3′-cyclopentane]-1′-yl]methanesulfonamide], the EC50 worked out at 650 pM. Also, the maximal effect (Emax) under setting [1] stood at 100%.

`[2H]C1([2H])Oc2ccccc2-c2cc(ccc2F)C[C@@]2(CC[C@H](NS(C)(=O)=O)C2)c2nc1co2` [Example 5, N-[(1′S,14R)-9,9-dideuterio-19-fluoro-spiro[8,12-dioxa-21-azatetracyclo[14.3.1.110,13.02,7]henicosa-1(19),2,4,6,10,13(21),16(20),17-octaene-14,3′-cyclopentane]-1′-yl]methanesulfonamide]: the half-maximal effective concentration (EC50) is 360 pM. The Emax under setting [1] stood at 100%.

In the case of `CS(=O)(=O)N[C@H]1CC[C@@]2(Cc3ccc(F)c(c3)-c3cccc(F)c3OCC3=NN=C2O3)C1` [Example 71, N-[(1′S,14R)-6,19-difluorospiro[8,21-dioxa-11,12-diazatetracyclo[14.3.1.110,13.02,7]henicosa-1(19),2(7),3,5,10,12,16(20),17-octaene-14,3′-cyclopentane]-1′-yl]methanesulfonamide], the 50% effective concentration (EC50) was 49000 pM. Besides, the Emax under setting [1] was 97%.

For “N-[(3′R,14S)-6,17,19-trifluorospiro[8,12-dioxa-21-azatetracyclo[14.3.1.110,13.02,7]henicosa-1(19),2,4,6,10,13(21),16(20),17-octaene-1′,5′-tetrahydrofuran′-3′-yl]methanesulfonamide or N-[(3′S,14R)-6,17,19-trifluorospiro[8,12-dioxa-21-azatetracyclo[14.3.1.110,13.02,7]henicosa-1(19),2,4,6,10,13(21),16(20),17-octaene-1′,5′-tetrahydrofuran′-3′-yl]methanesulfonamide [Example 109]”, the concentration for a half-maximal effect (EC50) was determined as 1600 pM. Under setting [1], the “Emax (%)” value was 99%.
